Test results from publication PMC8623179, “Design and Microwave Synthesis of New (5Z) 5-Arylidene-2-thioxo-1,3-thiazolinidin-4-one and (5Z) 2-Amino-5-arylidene-1,3-thiazol-4(5H)-one as New Inhibitors of Protein Kinase DYRK1A” (Pharmaceuticals, 2021).
Read-outs that look alike come from different tables or passages of the source.

Experiments:
[1] = test system: DYRK1A; details: reported, cited from earlier work
[2] = test system: Huh7 D12; experiment: Cell survival assay, Huh7 D12; type: cell-based; details: Huh-7D12; 48 h exposure, nuclei count; read-out: Cell Lines IC50 Huh7 D12
Procedure: (§1) Skin diploid fibroblastic cells were provided by BIOPREDIC International Company (Rennes, France). […] Cells were grown according to ECACC recommendations. The toxicity test of the compounds on these cells was as follows: 2 × 10^3 cells for HCT-116 cells or 4 × 10^3 for the other cells were seeded in 96-multi-well plates in triplicate and left for 24 h for attachment, spreading and growing. Then, cells were exposed for 48 h to increasing concentrations of the compounds, ranging from […], in a final volume of 120 μL of culture medium. […] The IC50 were graphically determined.

[3] = molecular target: GSK-3α/β; experiment: GSK-3α/β kinase assay; type: biochemical, porcine; details: 15 μM ATP, read-out: IC50 GSK3α/β
Procedure: (§2) The twenty-two (5Z) 5-arylidene-2-thioxo-1,3-thiazolidin-4-ones 3a–v and the twenty-four (5Z) 2-amino-5-arylidene-1,3-thiazolidin-4(5H)-ones 5a–x were evaluated against four different and representative in vitro kinase assays DYRK1A (dual specificity tyrosine phosphorylation regulated kinase), CK1 δ/e (caseine kinase 1), CDK5/p25 (cyclin dependant kinase), and GSK3 α/β (glycogen synthase kinase 3) to evaluate their inhibition potency. […] All the compounds were initially tested at a 10 μM concentration.
(§3) After 30-min incubation at 30 °C, the reaction was stopped by harvesting, using a FilterMate harvester (Packard), onto P81 phospho-cellulose papers (GE Healthcare, Chicago, IL, USA) which were washed in 1% phosphoric acid. Scintillation fluid was added and the radioactivity measured in a Packard counter. Blank values were subtracted and activities calculated as pmoles of phosphate incorporated for the 30-min incubation. The activities were expressed in % of the maximal activity, i.e., in the absence of inhibitors. Controls were performed with appropriate dilutions of DMSO.
GSK-3α/β (porcine brain, native) was assayed, as described for CDK5/p25 but in Buffer A and using a GSK-3 specific substrate (GS-1: […]pEDEEE) (pS stands for phosphorylated serine). GS-1 was synthesized by Millegen (Labege, France).

[4] = molecular target: T1, CDK5/p25 (Homo sapiens, UniProt Q00535); experiment: CDK5/p25 kinase assay; type: biochemical; details: 15 μM ATP
T1 construct: made in house
T1 sequence (Q00535 whole entry): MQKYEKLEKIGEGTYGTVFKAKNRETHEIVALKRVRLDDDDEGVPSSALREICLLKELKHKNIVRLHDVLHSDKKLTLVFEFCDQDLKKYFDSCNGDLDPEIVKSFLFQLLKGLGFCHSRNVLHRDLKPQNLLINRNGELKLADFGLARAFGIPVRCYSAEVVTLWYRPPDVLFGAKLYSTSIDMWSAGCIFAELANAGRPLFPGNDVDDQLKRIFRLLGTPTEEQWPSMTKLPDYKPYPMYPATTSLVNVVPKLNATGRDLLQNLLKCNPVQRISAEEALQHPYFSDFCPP
T1 sequence (Q15078 99-307 partner limits assumed): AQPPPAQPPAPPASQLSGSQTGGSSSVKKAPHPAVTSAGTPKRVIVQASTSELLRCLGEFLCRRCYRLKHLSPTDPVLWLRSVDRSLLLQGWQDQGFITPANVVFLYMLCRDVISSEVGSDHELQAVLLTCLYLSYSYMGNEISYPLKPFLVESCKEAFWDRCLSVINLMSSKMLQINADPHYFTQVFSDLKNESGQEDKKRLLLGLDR
Procedure: as §2, §3
CDK5/p25 (human, recombinant) was prepared as previously described. […] ATP (3000 Ci/mmol; 10 mCi/mL) in a final volume of 30 μL. After 30-min incubation at 30 °C, 25 μL aliquots of supernatant were spotted onto 2.5 × 3 cm pieces of Whatman P81 phospho-cellulose paper, and, 20 s later, the filters were washed five times (for at least 5 min each time) in a solution of 10 mL phosphoric acid/litter of water. The wet filters were counted in the presence of 1 mL ACS (Amersham, UK) scintillation fluid.

[5] = molecular target: Casein kinase 1 (CK1δ/ε); experiment: CK1δ/ε kinase assay; type: biochemical, porcine; details: 15 μM ATP, read-out: IC50 CK1
Procedure: as §2, §3
Casein kinase 1 (CK1δ/ε) (porcine brain, native) was assayed with 0.67 µg of CKS peptide ([…]pSAYSITA), a CK1 specific substrate obtained from Millegen (Labege, France).

[6] = test system: MDA-MB231; experiment: Cell survival assay, MDA-MB231; type: cell-based; details: Homo sapiens, MDA-MB-231; 48 h exposure, nuclei count; read-out: Cell Lines IC50 MDA-MB231
Procedure: as §1

[7] = test system: PC3; experiment: Cell survival assay, PC3; type: cell-based; details: Homo sapiens, PC-3; 48 h exposure, nuclei count; read-out: Cell Lines IC50 PC3
Procedure: as §1

[8] = molecular target: T2, DYRK1A (Rattus norvegicus, UniProt Q63470); experiment: DYRK1A kinase assay; type: biochemical; details: 15 μM ATP
T2 construct: GST; made in house; host or cells: Escherichia coli
Procedure: as §2
as §3, with “DMSO. […]” for “DMSO.”

[9] = test system: Caco2; experiment: Cell survival assay, Caco2; type: cell-based; details: Homo sapiens, Caco-2; 48 h exposure, nuclei count; read-out: Cell Lines IC50 Caco2
Procedure: as §1

[10] = test system: HCT116; experiment: Cell survival assay, HCT116; type: cell-based; details: Homo sapiens, HCT-116; 48 h exposure, nuclei count; read-out: Cell Lines IC50 HCT116
Procedure: as §1

[11] = test system: Fibroblasts; experiment: Cell survival assay, normal skin diploid fibroblasts; type: cell-based; details: Fibroblast; normal cells, 48 h exposure, nuclei count; read-out: Cell Lines IC50 Fibroblasts
Procedure: as §1

[12] = test system: NCI-H727; experiment: Cell survival assay, NCI-H727; type: cell-based; details: Homo sapiens, 48 h exposure, nuclei count, read-out: Cell Lines IC50 NCI-H727
Procedure: as §1

Molecule	IC50 [1] [µM]	IC50 ([5]; Table 4) [µM]	IC50 ([8]; Table 4) [µM]	IC50 ([3]; Table 5) [µM]	IC50 ([4]; Table 5) [µM]	IC50 ([5]; Table 5) [µM]	IC50 ([8]; Table 5) [µM]	also measured
2-(pyridin-3-yl)-1H-indol-6-ol	0.06							
O=C1NC(=S)S/C1=C\c1ccc2c(c1)OCO2 [Compound 3a, (5Z)-5-(1,3-Benzodioxol-5-ylmethylene)-2-thioxo-1,3-thiazolidin-4-one]		> 10	0.07					IC50 [2]: > 25 µM; IC50 ([3]; Table 4): 8.5 µM; IC50 ([4]; Table 4): > 10 µM; IC50 [6]: > 25 µM; IC50 [7]: > 25 µM; IC50 [9]: > 25 µM; IC50 [10]: > 25 µM; IC50 [11]: > 25 µM; IC50 [12]: > 25 µM
COc1ccc(/C=C2\SC(=S)NC2=O)cc1O [Compound 3b, (5Z)-5-(3-Hydroxy-4-methoxybenzylidene)-2-thioxo-1,3-thiazolidin-4-one]		> 10	1.4					IC50 [2]: > 25 µM; IC50 ([3]; Table 4): > 10 µM; IC50 ([4]; Table 4): > 10 µM; IC50 [6]: > 25 µM; melting point: 222 to 224 °C; IC50 [7]: > 25 µM; IC50 [9]: > 25 µM; IC50 [10]: > 25 µM; IC50 [11]: > 25 µM; IC50 [12]: > 25 µM
COc1cc(/C=C2\SC(=S)NC2=O)ccc1O [Compound 3c, (5Z)-5-(4-Hydroxy-3-methoxybenzylidene)-2-thioxo-1,3-thiazolidin-4-one]		≥ 10	0.064					IC50 [2]: > 25 µM; IC50 ([3]; Table 4): 8 µM; IC50 [6]: > 25 µM; IC50 [7]: > 25 µM; IC50 [9]: > 25 µM; IC50 [10]: 12 µM; IC50 [11]: > 25 µM; IC50 [12]: > 25 µM
O=C1NC(=S)S/C1=C\c1ccc2c(c1)OCCO2 [Compound 3f, (5Z)-5-(2,3-Dihydro-1,4-benzodioxin-6-ylmethylene)-2-thioxo-1,3-thiazolidin-4-one]		> 10	0.056					IC50 [2]: > 25 µM; IC50 ([3]; Table 4): ≤ 10 µM; IC50 ([4]; Table 4): > 10 µM; IC50 [6]: > 25 µM; melting point: 250 to 252 °C; IC50 [7]: > 25 µM; IC50 [9]: > 25 µM; IC50 [10]: > 25 µM; IC50 [11]: > 25 µM; IC50 [12]: > 25 µM
O=C1NC(=S)S/C1=C\c1cc(Br)c2c(c1)OCO2 [Compound 3i, (5Z)-5-[(7-Bromo-1,3-benzodioxol-5-yl)methylene]-2-thioxo-1,3-thiazolidin-4-one]		> 10	0.7					IC50 ([3]; Table 4): > 10 µM; IC50 ([4]; Table 4): > 10 µM; melting point: > 260 °C
O=C1NC(=S)S/C1=C\c1ccc(O)c(O)c1 [Compound 3j, (5Z)-5-(3,4-Dihydroxybenzylidene)-2-thioxo-1,3-thiazolidin-4-one]		> 10	> 10					IC50 ([3]; Table 4): > 10 µM; IC50 ([4]; Table 4): > 10 µM; melting point: 210 to 212 °C
O=C1NC(=S)S/C1=C\c1cc(O)cc(O)c1 [Compound 3k, (5Z)-5-(3,5-Dihydroxybenzylidene)-2-thioxo-1,3-thiazolidin-4-one]		> 10	> 10					IC50 ([3]; Table 4): > 10 µM; IC50 ([4]; Table 4): > 10 µM; melting point: 230 to 232 °C
O=C1NC(=S)S/C1=C\c1cc2ccccc2o1 [Compound 3l, (5Z)-5-(1-Benzofuran-2-ylmethylene)-2-thioxo-1,3-thiazolidin-4-one]		> 10	15					IC50 ([4]; Table 4): > 10 µM; melting point: 246 to 250 °C
O=C1N=C(N2CCSCC2)S/C1=C\c1ccc2c(c1)OCCO2 [Compound 5q, (5Z)-5-(2,3-Dihydro-1,4-benzodioxin-6-ylmethylene)-2-(thiomorpholin-4-yl)-1,3-thiazol-4(5H)-one]				3.7	> 10	> 10	0.17	
O=C1N=C(Nc2ccccc2)S/C1=C\c1ccc2c(c1)OCO2 [Compound 5r, (5Z)-5-Benzo[1,3]dioxol-5-ylmethylene-2-phenylamino-1,3-thiazol-4(5H)-one]				> 10	> 10	> 10	0.61	
O=C1N=C(Nc2ccccn2)S/C1=C\c1ccc2c(c1)OCO2 [Compound 5s, (5Z)-5-Benzo[1,3]dioxol-5-ylmethylene-2-(pyridin-2-yl)amino-1,3-thiazol-4(5H)-one]				≤ 10	> 10	> 10	0.033	
O=C1N=C(Nc2ccncc2)S/C1=C\c1ccc2c(c1)OCO2 [Compound 5t, (5Z)-5-Benzo[1,3]dioxol-5-ylmethylene-2-(pyridin-4-yl)amino-1,3-thiazol-4(5H)-one]				> 10	> 10	> 10	> 10	
COc1ccc(NC2=NC(=O)/C(=C/c3ccc4c(c3)OCO4)S2)cc1 [Compound 5u, (5Z)-5-Benzo[1,3]dioxol-5-ylmethylene-2-(4-methoxy-phenylamino)-1,3-thiazol-4(5H)-one]				> 10	> 10	> 10	0.9	
O=C1N=C(Nc2ccc(Cl)cc2)S/C1=C\c1ccc2c(c1)OCO2 [Compound 5v, (5Z)-5-Benzo[1,3]dioxol-5-ylmethylene-2-(4-chloro-phenylamino)-1,3-thiazol-4(5H)-one]				> 10	> 10	> 10	9	
O=C1N=C(Nc2ccccc2)S/C1=C\c1ccc2c(c1)CCO2 [Compound 5w, (5Z)-5-(2,3-Dihydro-benzofuran-5-ylmethylene)-2-phenylamino-1,3-thiazol-4(5H)-one]				> 10	> 10	> 10	0.12	
O=C1N=C(Nc2ccccc2)S/C1=C\c1ccc2c(c1)OCCO2 [Compound 5x, (5Z)-5-(2,3-Dihydro-benzo[1,4]dioxin-6-ylmethylene)-2-phenylamino-1,3-thiazol-4(5H)-one]				> 10	> 10	> 10	0.27	
O=C1NC(Nc2ccccc2)=N/C1=C\c1ccc2c(c1)OCO2 [Leucettine L41]								IC50 ([1]; Figure 1): 0.04 µM
Nc1ncc(I)c(-c2c[nH]c3ccccc23)n1 [Meridianine 74]	0.066							
Nc1nccc(-c2c[nH]c3nccc(O)c23)n1 [Merioline 2]	0.029							
CN(Cc1cccs1)c1ncnc2ccc(-c3ccc4c(c3)OCO4)cc12 [VI]	0.014							
c1csc(CNc2ncnc3ccc(-c4ccc5c(c4)OCO5)cc23)c1 [V]	0.062							
COc1cc(C)c(-c2c3c4cc(OC)c(O)cc4oc(=O)c3n3ccc4cc(O)c(OC)cc4c23)cc1O [XII]	0.042							
O=c1oc2ccc(O)cc2c2c1[nH]c1ccc(O)cc12 [XI]	0.067							
